Source: patent publication US5238926A, “Anti-fungal agents” (priority 1992, dated 1993)
Converted amounts (≈) assume the structure as drawn.

Tests used:
[1] = tested on: Resistant Strains (Candida albicans C79, C6, C8, C31, C54, C70, C104, C138, C140; Candida stellatoidea C45); assay: In vitro anti-fungal activity, microtiter minimum inhibitory concentration (MIC) test, resistant strains (MIC-R); type: cell-based; conditions: 48 h, pH 5.4, read-out: MIC-R
Procedure: (§1) The minimum inhibitory concentrations (MIC-R and MIC-S) were determined in accordance with the procedure set forth just below.
(§2) In vitro anti-fungal activity was determined in microtiter minimum inhibitory concentration (MIC) tests using Yeast Nitrogen […] (YNB without amino acids, Difco., Detroit, Mich.) at pH 5.4. Yeasts were grown overnight in Sabouraud Dextrose Broth. at 28° C. with shaking, and concentrations adjusted in sterile saline using a spectrophoptometer at 540 mμ. Compounds were dissolved in various vehicles and diluted in media to twice the final concentrations. The Cetus Pro/Pette system was used to serially dilute 50 μl in round bottom 96 well plates (Falcon, Lincoln Park, NJ.). The turbidometrically adjusted yeast suspensions were diluted 1:3,000 in YNB. These dilutions when added to the wells, produced a final inoculum of 3×10^3 /ml. Plates were incubated at 37° C. for 48 hours. MICs were defined as the lowest concentrations of compound that prevented visible growth. MICs were taken against the following organisms and expressed in the table above as the geometric mean. MIC-R and MIC-S mean respectively, MICs taken against resistant and sensitive strains.
Candida stellatoidea C45

[2] = In vitro anti-fungal activity, microtiter minimum inhibitory concentration (MIC) test, sensitive strains (MIC-S); type: cell-based; conditions: 48 h, pH 5.4, read-out: MIC-S
Procedure: as §1, §2
Candida parapsilosis C67
Candida tropicalis C112
Torulopsis glabrata C95
Candida pseudotropicalis C967
Candida gullermondii C137
Sacchararomyces mutant C147

Compound | MIC [1] | MIC [2]
CCCCCCCCCCCCNC(=O)[C@@H](NC(=O)[C@@H](N)CC[S+](C)[O-])[C@H]1O[C@@H](n2ccc(=O)[nH]c2=O)[C@H](O)[C@@H]1O (stereo partly shown) | 181 µg/mL (≈ 301 µM) | 181 µg/mL (≈ 301 µM)
CCCCCCCCCCCCNC(=O)[C@@H](NC(=O)[C@@H](N)C(C)CSC)[C@H]1O[C@@H](n2ccc(=O)[nH]c2=O)[C@H](O)[C@@H]1O (stereo partly shown) | 23 µg/mL (≈ 38.3 µM) | 34 µg/mL (≈ 56.7 µM)
CCCCCCCCCCCCNC(=O)[C@@H](NC(=O)[C@@H](N)CCOC)[C@H]1O[C@@H](n2ccc(=O)[nH]c2=O)[C@H](O)[C@@H]1O | 52 µg/mL (≈ 91.3 µM) | 111 µg/mL (≈ 195 µM)
CCCCCCCCCCCCNC(=O)[C@@H](NC(=O)[C@@H](N)CSCc1ccccc1)[C@H]1O[C@@H](n2ccc(=O)[nH]c2=O)[C@H](O)[C@@H]1O | 111 µg/mL (≈ 171 µM) | > 147 µg/mL
CCCCCCCCCCC(N)C(=O)N[C@H](C(N)=O)[C@H]1O[C@@H](n2ccc(=O)[nH]c2=O)[C@H](O)[C@@H]1O (stereo partly shown) | > 256 µg/mL | > 256 µg/mL
CCCCCCCCCCCCNC(=O)[C@@H](NC(=O)[C@@H](N)CCCC)[C@H]1O[C@@H](n2ccc(=O)[nH]c2=O)[C@H](O)[C@@H]1O | 13 µg/mL (≈ 22.9 µM) | 19.7 µg/mL (≈ 34.7 µM)
CCCCCCCCCCCCNC(=O)[C@@H](NC(=O)C1(N)CC2CCC1C2)[C@H]1O[C@@H](n2ccc(=O)[nH]c2=O)[C@H](O)[C@@H]1O (stereo partly shown) | 104 µg/mL (≈ 176 µM) | 315 µg/mL (≈ 532 µM)
C=C[C@@H](C)[C@H](N)C(=O)N[C@H](C(=O)NCCCCCCCCCCCC)[C@H]1O[C@@H](n2ccc(=O)[nH]c2=O)[C@H](O)[C@@H]1O [6'-dodecylamido-5-N-[2-S-amino-3-R-methyl-4-pentenoyl]-UPOC] | 18 µg/mL (≈ 31.8 µM) | 26 µg/mL (≈ 46 µM)
